Reference: US9980943B2, “Methods of treating muscular dystrophy” (BOARD OF REGENTS OF THE NEVADA SYSTEM OF HIGHER EDUCATION, …, priority 2013, dated 2018)
Read-outs that look alike come from different tables or passages of the source.

How the values were obtained:
Assay type in all cases: cell-based, mouse
[1] = tested on: α7 integrin (LacZ reporter in α7βgal+/− myoblasts); experiment: Myoblast α7+/LacZ integrin FDG assay (Burkin assay in myoblasts, 96-well); conditions: α7+/LacZ myoblasts, 96-well; for fold induction at 0.5 µM / fold induction at 1 µM / fold induction at 5 µM / fold induction at 10 µM / fold induction at 20 µM / fold induction at 40 µM: Mus musculus, Myoblast, 48 h
[2] = tested on: β-galactosidase in CMV-LacZ C2C12 myotubes; experiment: CMV-LacZ secondary screen in C2C12 myotubes (β-Gal stabilizing assay); conditions: for fold induction at 5 µM / fold induction at 10 µM / fold induction at 20 µM / fold induction at 40 µM: Mus musculus; for fold induction at 5 µM: C2C12, read-out: CMV-LACZ in Myotubes, signal relative to DMSO, 5 uM; for fold induction at 5 µM / fold induction at 10 µM / fold induction at 20 µM / fold induction at 40 µM / CMV-LACZ in Myotubes, signal relative to DMSO: C2C12 CMV-LacZ myotubes, fold relative to DMSO; for fold induction at 10 µM: C2C12, read-out: CMV-LACZ in Myotubes, signal relative to DMSO, 10 uM; for fold induction at 20 µM: C2C12, read-out: CMV-LACZ in Myotubes, signal relative to DMSO, 20 uM; for fold induction at 40 µM: C2C12, read-out: CMV-LACZ in Myotubes, signal relative to DMSO, 40 uM; for CMV-LACZ in Myotubes (β-galactosidase activity relative to DMSO): CMV-LacZ C2C12 myotubes, 96-well format
Method in brief: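 First, C2C12 myoblasts were transfected with a linearized CMV-LACZ vector and clonal lines selected by FDG β-gal assay. Then cells were exposed to compounds at 0.5, 1, 5, 10, 20 and 40 μM in 96-well format, two replicates each, and β-gal measured.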

[3] = tested on: α7 integrin (LacZ reporter in α7+/LacZ myotubes); experiment: Myotube α7 integrin FDG assay (Burkin assay in myotubes, 96-well); conditions: myotubes; for fold induction at 0.5 µM / fold induction at 1 µM / fold induction at 5 µM / fold induction at 10 µM / fold induction at 20 µM / fold induction at 40 µM: Mus musculus, Myotube
[4] = 0.5 uM, read-out: Burkin Assay in Myoblasts, signal relative to DMSO
[5] = 1 uM, read-out: Burkin Assay in Myoblasts, signal relative to DMSO
[6] = 5 uM, read-out: Burkin Assay in Myoblasts, signal relative to DMSO
[7] = 10 uM, read-out: Burkin Assay in Myoblasts, signal relative to DMSO
[8] = 20 uM, read-out: Burkin Assay in Myoblasts, signal relative to DMSO
[9] = 40 uM, read-out: Burkin Assay in Myoblasts, signal relative to DMSO
[10] = 0.5 uM, read-out: Burkin Assay in Myotubes, α7 integrin LacZ reporter signal relative to DMSO
[11] = 1 uM, read-out: Burkin Assay in Myotubes, α7 integrin LacZ reporter signal relative to DMSO
[12] = 5 uM, read-out: Burkin Assay in Myotubes, α7 integrin LacZ reporter signal relative to DMSO
[13] = 10 uM, read-out: Burkin Assay in Myotubes, α7 integrin LacZ reporter signal relative to DMSO
[14] = 20 uM, read-out: Burkin Assay in Myotubes, α7 integrin LacZ reporter signal relative to DMSO
[15] = 40 uM, read-out: Burkin Assay in Myotubes, α7 integrin LacZ reporter signal relative to DMSO

SMILES	fold induction at 5 µM [2]	fold induction at 10 µM [2]	fold induction at 20 µM [2]	fold induction at 40 µM [2]	Burkin Assay in Myoblasts, signal relative to DMSO ([1]; 0.5 uM)	Burkin Assay in Myoblasts, signal relative to DMSO ([1]; 1 uM)	Burkin Assay in Myoblasts, signal relative to DMSO ([1]; 5 uM)	Burkin Assay in Myoblasts, signal relative to DMSO ([1]; 10 uM)	Burkin Assay in Myoblasts, signal relative to DMSO ([1]; 20 uM)	Burkin Assay in Myoblasts, signal relative to DMSO ([1]; 40 uM)	CMV-LACZ in Myotubes, signal relative to DMSO ([2]; 5 uM)	CMV-LACZ in Myotubes, signal relative to DMSO ([2]; 10 uM)	CMV-LACZ in Myotubes, signal relative to DMSO ([2]; 20 uM)	CMV-LACZ in Myotubes, signal relative to DMSO ([2]; 40 uM)	Burkin Assay in Myotubes, α7 integrin LacZ reporter signal relative to DMSO ([3]; 0.5 uM)	Burkin Assay in Myotubes, α7 integrin LacZ reporter signal relative to DMSO ([3]; 1 uM)	Burkin Assay in Myotubes, α7 integrin LacZ reporter signal relative to DMSO ([3]; 5 uM)	Burkin Assay in Myotubes, α7 integrin LacZ reporter signal relative to DMSO ([3]; 10 uM)	Burkin Assay in Myotubes, α7 integrin LacZ reporter signal relative to DMSO ([3]; 20 uM)	Burkin Assay in Myotubes, α7 integrin LacZ reporter signal relative to DMSO ([3]; 40 uM)	also measured
COc1nccc(NCc2ccccc2)c1C#N [MLS001077207-01]	0.952	1.04	0.866	0.782	–	–	–	–	–	–	–	–	–	–	–	–	–	–	–	–	fold induction at 0.5 µM [1, 4]: 0.97; fold induction at 1 µM [1, 5]: 1.01; fold induction at 5 µM [1, 6]: 1.05; fold induction at 10 µM [1, 7]: 1.06; fold induction at 20 µM [1, 8]: 1.01; fold induction at 40 µM [1, 9]: 1.15; fold induction at 0.5 µM [3, 10]: 0.985; fold induction at 1 µM [3, 11]: 1.06; fold induction at 5 µM [3, 12]: 1.42; fold induction at 10 µM [3, 13]: 1.15; fold induction at 20 µM [3, 14]: 1.01; fold induction at 40 µM [3, 15]: 1.21
CCOc1ccc(S(=O)(=O)NCCC(=O)NCC(c2cccs2)N2CCOCC2)cc1 (stereo not shown) [MLS001080869-01]	–	–	–	–	–	–	–	–	–	–	–	–	–	–	–	–	–	–	–	–	Burkin Assay in Myoblasts, value relative to DMSO ([1]; 0.5 uM): 1.144; Burkin Assay in Myoblasts, value relative to DMSO ([1]; 1 uM): 1.036; Burkin Assay in Myoblasts, value relative to DMSO ([1]; 5 uM): 1.147; Burkin Assay in Myoblasts, value relative to DMSO ([1]; 10 uM): 0.9857; Burkin Assay in Myoblasts, value relative to DMSO ([1]; 20 uM): 0.973; Burkin Assay in Myoblasts, value relative to DMSO ([1]; 40 uM): 0.8485; CMV-LACZ in Myotubes (β-galactosidase activity relative to DMSO) ([2]; 5 uM): 0.9349; CMV-LACZ in Myotubes (β-galactosidase activity relative to DMSO) ([2]; 10 uM): 0.9153; CMV-LACZ in Myotubes (β-galactosidase activity relative to DMSO) ([2]; 20 uM): 0.9927; CMV-LACZ in Myotubes (β-galactosidase activity relative to DMSO) ([2]; 40 uM): 1.01; Burkin Assay in Myotubes (signal relative to DMSO) ([3]; 0.5 uM): 1.011; Burkin Assay in Myotubes (signal relative to DMSO) ([3]; 1 uM): 0.9574; Burkin Assay in Myotubes (signal relative to DMSO) ([3]; 5 uM): 0.974; Burkin Assay in Myotubes (signal relative to DMSO) ([3]; 10 uM): 0.9257; Burkin Assay in Myotubes (signal relative to DMSO) ([3]; 20 uM): 0.9862; Burkin Assay in Myotubes (signal relative to DMSO) ([3]; 40 uM): 0.9802
Cc1ccc(NS(=O)(=O)c2ccc3c(c2)NC(=O)CCS3)c(Br)c1 [MLS001095231-01]	–	–	–	–	0.9692	0.9682	0.9242	0.8637	0.9197	0.728	1.035	0.7409	0.9181	0.6229	1.005	0.9382	1.022	0.9695	0.9863	0.8356	–
Cc1c(C(=O)N2CCCCC2)c(S(=O)(=O)Nc2cccc(Br)c2)c(C)n1C [MLS001096269-01]	1.09	0.74	0.986	0.775	–	–	–	–	–	–	–	–	–	–	–	–	–	–	–	–	fold induction at 0.5 µM ([1]; 0.5 uM, read-out: Burkin Assay in Myoblasts, value relative to DMSO): 1.04; fold induction at 1 µM ([1]; 1 uM, read-out: Burkin Assay in Myoblasts, value relative to DMSO): 1.01; fold induction at 5 µM ([1]; 5 uM, read-out: Burkin Assay in Myoblasts, value relative to DMSO): 0.941; fold induction at 10 µM ([1]; 10 uM, read-out: Burkin Assay in Myoblasts, value relative to DMSO): 1.03; fold induction at 20 µM ([1]; 20 uM, read-out: Burkin Assay in Myoblasts, value relative to DMSO): 1.05; fold induction at 40 µM ([1]; 40 uM, read-out: Burkin Assay in Myoblasts, value relative to DMSO): 1.2; fold induction at 0.5 µM ([3]; 0.5 uM, read-out: Burkin Assay in Myotubes (signal relative to DMSO)): 0.999; fold induction at 1 µM ([3]; 1 uM, read-out: Burkin Assay in Myotubes (signal relative to DMSO)): 1.09; fold induction at 5 µM ([3]; 5 uM, read-out: Burkin Assay in Myotubes (signal relative to DMSO)): 1.31; fold induction at 10 µM ([3]; 10 uM, read-out: Burkin Assay in Myotubes (signal relative to DMSO)): 1.12; fold induction at 20 µM ([3]; 20 uM, read-out: Burkin Assay in Myotubes (signal relative to DMSO)): 1.13; fold induction at 40 µM ([3]; 40 uM, read-out: Burkin Assay in Myotubes (signal relative to DMSO)): 0.912
O=C(Cn1cccc1C(=O)c1ccccc1)NCCCc1ccccc1 [MLS001110618-01]	–	–	–	–	0.9525	1.03	0.9228	1.005	0.9713	1.083	0.8954	0.9336	1.0555	0.4765	0.9526	1.067	1.114	1.252	1.0381	0.9463	–
COc1ccc(CCNC(=O)c2nn(C)c3c2CS(=O)(=O)c2ccccc2-3)cc1OC [MLS001117140-01]	0.951	1.12	1.38	1.17	–	–	–	–	–	–	–	–	–	–	–	–	–	–	–	–	fold induction at 0.5 µM [1, 4]: 1.03; fold induction at 1 µM [1, 5]: 1.07; fold induction at 5 µM [1, 6]: 0.909; fold induction at 10 µM [1, 7]: 0.901; fold induction at 20 µM [1, 8]: 0.922; fold induction at 40 µM [1, 9]: 0.942; fold induction at 0.5 µM [3, 10]: 0.932; fold induction at 1 µM [3, 11]: 1.12; fold induction at 5 µM [3, 12]: 1.09; fold induction at 10 µM [3, 13]: 1.37; fold induction at 20 µM [3, 14]: 1.09; fold induction at 40 µM [3, 15]: 1.06
Cc1cccn2c(=O)c3cc(C(=O)NC4CCCCC4)n(C)c3nc12 [MLS001117351-01]	–	–	–	–	1.103	1.105	0.7718	0.7445	0.7137	0.4323	1.016	1.088	1.1481	0.8952	1.025	0.9924	0.8315	0.9463	0.7669	0.6986	–
